Measured values as given in patent publication US7253177B2, “Synthesis and antimalarial activity of pyrrolo[3,2-f]quinazoline-1,3-diamine derivatives” (United States of America as Represented by the Secretary of …, priority 2004, dated 2007).
In brackets after ≈: the same amount, converted by molar mass. Read-outs that look alike come from different tables or passages of the source.

Experiments:
P. falciparum = details: background, reported; cited from earlier work
[1] = Solubility in common organic solvents and water; type: physicochemical
[2] = system: Plasmodium berghei (KBG-173 strain); type: in vivo; details: mice, oral
Description: (§1) B. Antimalarial Activities: (a). In Vitro Antimalarial Studies. The in vitro assays were conducted by using a modification of the semiautomated microdilution technique of Desjardins et al and Chulay et al.. Four P. falciparum malaria parasite clones, from CDC Indochina III (W-2), CDC Sierra Leone I (D-6), Southeast Asia Isolates (TM91C235) and RCS (Isolates from Brazil) were utilized in susceptibility testing. They were derived by direct visualization and micromanipulation from patient isolates. The W-2 clone is susceptible to mefloquine but resistant to chloroquine, sulfadoxine, pyrimethamine, and quinine, whereas the D-6 clone is naturally resistant to mefloquine but susceptible to chloroquine, sulfadoxine, pyrimethamine and quinine. Test compounds were initially dissolved in DMSO and diluted 400 fold in RPMI 1640 culture medium supplemented with 25 mM Hepes, 32 mM NaHCO3 and 10% Albumax I (Gibco BRL, Grand Island, N.Y.). These solutions were subsequently serially diluted two-fold with a Biomek 1000 (Beckman, Fullerton, Calif.) over 11 different concentrations. The parasites were exposed to serial dilutions of each compound for 48 hrs and incubated at 37° C. with 5% O2, 5% CO2 and 90% N2 prior to the addition of [^3H]hypoxanthine. After a further incubation of 18 hrs, parasite DNA was harvested from each microtiter well using Packard Filtermate 196 Harvester (Meriden, Conn.) onto glass filters. Uptake of [^3H]hypoxanthine was measured with a Packard Topcount Scintillation. Concentration-response data were analyzed by a non-linear regression logistic dose response model and the IC50 values (50% inhibitory concentrations) for each compound were calculated. (Table 3). (b). In Vivo Antimalarial Studies against P. berghei in mice: The in vivo efficacy of the artelinic acid analogs were determined in a modified Thompson test. This test measures the survivability of mice and parasitemia clearance following administration of drug on days 3-5 post infection. In brief, 5×10^6 P. berghei-infected erythrocytes (KBG-173 strain) were inoculated intraperitoneally to female mice that weighed 24-30 g. By day three post-infection, parasitemia ranged from 1.0-3.7%. Each drug, dissolved in 5% sodium bicarbonate, was administered PO twice daily from day 3-5 post-infection. Total doses for each drug ranged from 1.5-384 mg/kg with 8 mice included in each dosage group. The percent suppression of parasitemia in the treated mice compared to the untreated controls was determined for each test compound; the SD-50 (fifty percent suppression dose) and SD-90 were determined from a non-linear regression logistic dose response fit at day 6 parasitemia data. Survival of mice to day 60 post-infection was considered a cure (C). Compounds were considered active (A) when the survival time of the treated mice was greater than twice the control mice, i.e., 12-14 day (Table 4-5). (c). Sporozoite Induced Test Each compound is ground with a mortar & pestle and suspended in 0.5% hydroxyethylcellulose—0.1% Tween 80 for compounds to be administered PO and those given SC are suspended in peanut oil. Each compound is prepared at 3 different dose levels as requested by WRAIR. Compounds are administered either PO or SC to mice once 4 hr before inoculation of sporozoites. Four-week-old male CD-1 mice, purchased from Charles River and weighing 16-17 g, are placed 5 per cage and allowed to acclimate for 4 days before being treated and then inoculated with sporozoites. They are fed food and water ad-lib and maintained at 76° F. with 12 hr light and 12 hr darkness. The cages and water bottles are changed biweekly. The mice are weighed on Days 0, 3 and 6 then biweekly when blood films are taken. Plasmodium yoelii (17×) is used to infect mice that will be used to infect the mosquitoes. Mice are given a single dose of test compound 4 hr before being inoculated intraperitoneally with 2.5×10^5 sporozoites of Plasmodium yoelii on Day 0. […]

[3] = system: Plasmodium falciparum TM91C235 (Southeast Asia Isolates); assay: In vitro antimalarial study, [3H]hypoxanthine uptake, TM91C235 clone; type: cell-based; details: Plasmodium falciparum, read-out: IC50 TM91C235
Description: as §1

[4] = Death rates after single intragastric treatment in rats; type: in vivo; details: for Day of Death: number of deaths: rats
[5] = system: Plasmodium falciparum D-6 clone (CDC Sierra Leone I); assay: In vitro antimalarial study, [3H]hypoxanthine uptake, D-6 clone; type: cell-based; details: Plasmodium falciparum, read-out: IC50 D-6
Description: as §1

Plasmodium berghei = assay: Antimalarial activity against Plasmodium berghei in mice by subcutaneous injection; type: in vivo
[6] = Aotus monkey; cited from earlier work
P. berghei = details: rodent model; cited from earlier work
[7] = mice; cited from earlier work
[8] = system: Plasmodium falciparum W-2 clone (CDC Indochina III); assay: In vitro antimalarial study, [3H]hypoxanthine uptake, W-2 clone; type: cell-based; details: Plasmodium falciparum, read-out: IC50 W-2
Description: as §1

[9] = system: Plasmodium falciparum RCS (Isolates from Brazil); assay: In vitro antimalarial study, [3H]hypoxanthine uptake, RCS clone; type: cell-based; details: Plasmodium falciparum; P. falciparum RCS clone
Description: as §1

[10] = system: D-6, RCS, W-2 and TM91C235 clones of Plasmodium falciparum; assay: In vitro tests against D-6, RCS, W-2 and TM91C235 clones; type: cell-based; details: sensitive and drug resistant P. falciparum cell lines
Description: B. Antimalarial Activities: (a). In Vitro Antimalarial Studies. The in vitro assays were conducted by using a modification of the semiautomated microdilution technique of Desjardins et al and Chulay et al.. Four P. falciparum malaria parasite clones, from CDC Indochina III (W-2), CDC Sierra Leone I (D-6), Southeast Asia Isolates (TM91C235) and RCS (Isolates from Brazil) were utilized in susceptibility testing. They were derived by direct visualization and micromanipulation from patient isolates. […] Uptake of [^3H]hypoxanthine was measured with a Packard Topcount Scintillation. Concentration-response data were analyzed by a non-linear regression logistic dose response model and the IC50 values (50% inhibitory concentrations) for each compound were calculated. […] In Vivo Antimalarial Studies against P. berghei in mice: The in vivo efficacy of the artelinic acid analogs were determined in a modified Thompson test. […] The percent suppression of parasitemia in the treated mice compared to the untreated controls was determined for each test compound; the SD-50 (fifty percent suppression dose) and SD-90 were determined from a non-linear regression logistic dose response fit at day 6 parasitemia data. […]

Nc1nc(N)c2c(ccc3c2ccn3Cc2ccccc2C(F)(F)F)n1 [Compound 1, 7-[(2-Trifluoromethyl-phenyl)methyl]-7H-pyrrolo[3,2-f]quinazoline-1,3-diamine, reference compound]
IC50 against P. falciparum in vitro (P. falciparum): ~0.01 ng/mL (≈ 0.028 nM)
solubility [1]: sparingly soluble
# Mice Alive Day 30/Total ([2]; 40 mg/kg/day): 4/5
# Mice Dead/Day Died ([2]; 40 mg/kg/day): 1/17
# Mice Alive Day 30/Total ([2]; 20-1.25 mg/kg/day): 5/5
# Mice Dead/Day Died ([2]; 20-1.25 mg/kg/day): none
IC50 [3]: 1.22 ng/mL (≈ 3.41 nM)
Deaths ([4]; rats n=4, single intragastric 25 mg/kg in 1% CMC suspension): 0/4
Deaths ([4]; rats n=4, single intragastric 50 mg/kg in 1% CMC suspension): 0/4
Deaths ([4]; rats n=4, single intragastric 100 mg/kg in 1% CMC suspension): 0/4
Deaths ([4]; rats n=4, single intragastric 200 mg/kg in 1% CMC suspension): 1/4
Deaths ([4]; rats n=4, single intragastric 400 mg/kg in 1% CMC suspension): 3/4
Day of Death: number of deaths ([4]; 200 mg/kg, fourth cell after Deaths (day uncertain)): 1
Day of Death: number of deaths ([4]; 400 mg/kg, second cell after Deaths (day uncertain)): 1
Day of Death: number of deaths ([4]; 400 mg/kg, third cell after Deaths (day uncertain)): 2
IC50 [5]: 0.0191 ng/mL (≈ 0.0535 nM)
# Mice Alive Day 31/Total (Plasmodium berghei; 20 mg/kg/day): 5/7
# Mice Alive Day 31/Total (Plasmodium berghei; 40 mg/kg/day): 0/7
# Mice Alive Day 31/Total (Plasmodium berghei; 10-2.5 mg/kg/day): 7/7
# Mice Dead/Day Died (Plasmodium berghei; 10-2.5 mg/kg/day): none
dose producing deaths / oral lethal dose [6]: less than 2 mg/kg
100% curative oral dose against P. berghei (P. berghei): <0.1 to 4 mg/kg
subcutaneous LD50 [7]: less than 20 mg/kg
IC50 [8]: 0.445 ng/mL (≈ 1.25 nM)
IC50 [9]: 0.357 ng/mL (≈ 0.999 nM)

CCN(CC)c1nc(N(CC)CC)c2c(ccc3c2ccn3Cc2ccccc2C(F)(F)F)n1 [Compound 5, 1,3-bis-(diethylamino)-7-(2-trifluromethyl)benzyl-7H-pyrrolo[3,2-f]quinazoline]
in vitro activity relative to lead compound 1 [10]: over ten thousand fold less active
oral dose range giving 100% cure against P. berghei ([2]; Thompson test): 10 to 80 mg/kg
# Mice Alive Day 30/Total ([2]; 160 mg/kg/day): 4/8
# Mice Alive Day 30/Total ([2]; 80-10 mg/kg/day): 8/8
# Mice Dead/Day Died ([2]; 80-10 mg/kg/day): none
IC50 [5]: 46 ng/mL (≈ 98 nM)
IC50 [8]: 104 ng/mL (≈ 222 nM)
